What was measured:
Assay type in all cases: cell-based
[1] = tested on: U373 (human glioblastoma); test: Test on cell proliferation (MTT test), U373; conditions: 72 hours
Procedure: (§1) a. Eight tumoral cell lines are used in this study: L1210 (mouse lymphocytic leukemia), HCT15 and LOVO (cell lines of human colon adenocarcinoma), A549 (human lung carcinoma), A172, U373 et U87 (human glioblastoma). All these lines are obtained from the American Type Culture Collection (ATCC), Rockville, Md. The L1210 cell cultures in suspension are cultured in Dulbecco's modified Eagle's medium (DMEM) (BioWhitaker, Verviers, Belgium) together with 10% of foetal calf serum inactivated by heating, 2 mM of glutamine, 50 μg/ml of penicillin and 50 μg/ml of streptomycin. The HT29 cells are cultured in mono-layer cultures in a McCoy 5a medium (Gibco, Paisley, United Kingdom) together with 10% of foetal calf serum inactivated by heat plus 2 mM of glutamine and 50 μg/ml of gentamycin. The other cells are cultured in an Earle's modified essential medium (EMEM; Gibco, Paisley, United Kingdom) together with 5% foetal calf serum inactivated by heat, 2 mM of glutamine, 50 U/ml of penicillin and 50 μg/ml of streptomycin. All the cell lines are cultured at 37° C. in a humidified atmosphere containing 95% air and 5% CO2.
(§2) Inhibition of the tumor cell line proliferation is determined using an MTT test. 1500 L1210 cells in a culture medium (according to the needs of the cell medium) are seeded in a well of a micro-well plate (tissue culture level: 96 wells, flat bottom) 24 hours before treatment with the compounds to be tested. For these dose-response studies, the cells are incubated with each of the compounds to be tested or their corresponding solvent (controls) for 48 hours over a final concentration range of 1.10^−10 to 1.10^−4 M. All the compounds are dissolved just before use in dimethylsulphoxide (DMSO) at a concentration of 50 mM. Other dilutions of the medicaments are carried out in the culture medium. The final concentration of DMSO never exceeds 0.2% (v/v). As controls, the solutions of medicaments are replaced with the solvent which is diluted successively in the same way as the compounds to be tested.
(§3) After the incubation period, the labeling reagent MTT (3-[4,5-dimethylthiazol-2-yl]-2,5-diphenyltetrazolium bromide; Thiazol blue, Sigma M 565, Sigma, St Louis, Mo.) is added at a final concentration of 0.3 mg/ml to each well. The cells are incubated for 4 hours at 37° C. in a humidified atmosphere. This stage allows the mitochondrial dehydrogenase of the living cells to convert the yellow tetrazolium salt MTT into crimson formazan crystals. The supernatant part is eliminated and the formazan crystals formed are solubilized with DMSO. The resultant coloured solution is quantified by absorbance at 570 nm by using a multi-cuvette scanning spectrophotometer. The data concerning the proliferation is expressed as a percentage of living cells in the treated wells, divided by the living cells in the controls. Each point represents the average of three independent experiments, each experiment represents six determinations.
(§4) For the other cell lines (HCT15, LOVO, A549, A172, U373, U87), 1000 to 2000 cells are seeded in the well of a micro-well plate 24 hours before medicinal treatment. […]
(§5) The results are expressed as percentages of the calculated proliferation by the optical density (OD) of the cells treated with a medicament divided by the OD of the control cells (cells treated with DMSO). As represented in Table II, the compounds to be tested have inhibited the proliferation of cells in a dose-dependent manner.

[2] = tested on: L1210 (mouse lymphocytic leukemia); test: Test on cell proliferation (MTT test), L1210; conditions: 48 hours
Procedure: as §1, §2, §3, §5

[3] = tested on: HCT15 (cell lines of human colon adenocarcinoma); test: Test on cell proliferation (MTT test), HCT15; conditions: 72 hours
Procedure: as §1, §2, §3, §4, §5

[4] = tested on: A172 (human glioblastoma); test: Test on cell proliferation (MTT test), A172; conditions: 72 hours
Procedure: as §1, §2, §3, §4, §5

Compound | PERCENTAGE OF CELL PROLIFERATION ([1]; 0.1 nM) [%] | PERCENTAGE OF CELL PROLIFERATION ([1]; 1 nM) [%] | PERCENTAGE OF CELL PROLIFERATION ([1]; 10 nM) [%] | PERCENTAGE OF CELL PROLIFERATION ([1]; 100 nM) [%] | PERCENTAGE OF CELL PROLIFERATION ([1]; 1 000 nM) [%] | PERCENTAGE OF CELL PROLIFERATION ([1]; 10 000 nM) [%] | PERCENTAGE OF CELL PROLIFERATION ([1]; 100 000 nM) [%] | PERCENTAGE OF CELL PROLIFERATION ([2]; 0.1 nM) [%] | PERCENTAGE OF CELL PROLIFERATION ([2]; 1 nM) [%] | PERCENTAGE OF CELL PROLIFERATION ([2]; 10 nM) [%] | PERCENTAGE OF CELL PROLIFERATION ([2]; 100 nM) [%] | PERCENTAGE OF CELL PROLIFERATION ([2]; 1 000 nM) [%] | PERCENTAGE OF CELL PROLIFERATION ([2]; 10 000 nM) [%] | PERCENTAGE OF CELL PROLIFERATION ([2]; 100 000 nM) [%] | PERCENTAGE OF CELL PROLIFERATION ([3]; 0.1 nM) [%] | PERCENTAGE OF CELL PROLIFERATION ([3]; 1 nM) [%] | PERCENTAGE OF CELL PROLIFERATION ([3]; 10 nM) [%] | PERCENTAGE OF CELL PROLIFERATION ([3]; 100 nM) [%] | PERCENTAGE OF CELL PROLIFERATION ([3]; 1 000 nM) [%] | PERCENTAGE OF CELL PROLIFERATION ([3]; 10 000 nM) [%] | further results
CCC1(O)CC(=O)OCc2c1cc1n(c2=O)Cc2cc3ccccc3nc2-1 (stereo not shown) [Example 3, 5-ethyl-5-hydroxy-1,4,5,13-tetrahydro-3H,15H-oxepino [3′,4′:6,7]indolizino[1,2-b]quinoline-3,15-dione] | 99.00 | 98.00 | 40.00 | 24.00 | 17.00 | 13.00 | 9.00 | 87.22 | 68.92 | 42.64 | 26.85 | 10.83 | 2.11 | 2.20 | 86.00 | 84.00 | 58.00 | 44.00 | 18.00 | 9.00 | PERCENTAGE OF CELL PROLIFERATION ([3]; 100 000 nM): 13.00%; PERCENTAGE OF CELL PROLIFERATION ([4]; 0.1 nM): 89.00%; PERCENTAGE OF CELL PROLIFERATION ([4]; 1 nM): 101.00%; PERCENTAGE OF CELL PROLIFERATION ([4]; 10 nM): 68.00%; PERCENTAGE OF CELL PROLIFERATION ([4]; 100 nM): 37.00%; PERCENTAGE OF CELL PROLIFERATION ([4]; 1 000 nM): 27.00%; PERCENTAGE OF CELL PROLIFERATION ([4]; 10 000 nM): 10.00%; PERCENTAGE OF CELL PROLIFERATION ([4]; 100 000 nM): 7.00%
CCC(O)(CC(=O)O)c1cc2n(c(=O)c1CO)Cc1cc3ccccc3nc1-2 (stereo not shown) [Example 4, 3-hydroxy-3-[8-(hydroxymethyl)-9-oxo-9,11-dihydroindolizino [1,2-b]quinolin-7-yl]pentanoic acid] | 86.00 | 85.00 | 89.00 | 63.00 | 30.00 | 16.00 | 2.00 | 92.14 | 97.14 | 91.08 | 86.28 | 46.79 | 27.80 | 8.09 | 91.00 | 92.00 | 86.00 | 78.00 | 54.00 | 20.00 | PERCENTAGE OF CELL PROLIFERATION ([3]; 100 000 nM): 7.00%; PERCENTAGE OF CELL PROLIFERATION ([4]; 0.1 nM): 93.00%; PERCENTAGE OF CELL PROLIFERATION ([4]; 1 nM): 92.00%; PERCENTAGE OF CELL PROLIFERATION ([4]; 10 nM): 98.00%; PERCENTAGE OF CELL PROLIFERATION ([4]; 100 nM): 97.00%; PERCENTAGE OF CELL PROLIFERATION ([4]; 1 000 nM): 44.00%; PERCENTAGE OF CELL PROLIFERATION ([4]; 10 000 nM): 31.00%; PERCENTAGE OF CELL PROLIFERATION ([4]; 100 000 nM): 10.00%
CCc1c2c(nc3ccccc13)-c1cc3c(c(=O)n1C2)COC(=O)CC3(O)CC (stereo not shown) [Example 9, 5,12-diethyl-5-hydroxy-1,4,5,13-tetrahydro-3H,15H-oxepino[3′,4′:6,7]indolizino[1,2-b]quinoline-3,15-dione] | 89.00 | 69.00 | 24.00 | 18.00 | 8.00 | 3.00 | 1.00 | 74.04 | 62.05 | 44.72 | 34.01 | 20.20 | 4.34 | 1.58 | 94.00 | 89.00 | 59.00 | 35.00 | 15.00 | 8.00 | PERCENTAGE OF CELL PROLIFERATION ([3]; 100 000 nM): 3.00%; PERCENTAGE OF CELL PROLIFERATION ([4]; 0.1 nM): 97.00%; PERCENTAGE OF CELL PROLIFERATION ([4]; 1 nM): 89.00%; PERCENTAGE OF CELL PROLIFERATION ([4]; 10 nM): 44.00%; PERCENTAGE OF CELL PROLIFERATION ([4]; 100 nM): 36.00%; PERCENTAGE OF CELL PROLIFERATION ([4]; 1 000 nM): 19.00%; PERCENTAGE OF CELL PROLIFERATION ([4]; 10 000 nM): 3.00%; PERCENTAGE OF CELL PROLIFERATION ([4]; 100 000 nM): 1.00%
CCc1c2c(nc3ccccc13)-c1cc(C(O)(CC)CC(=O)O)c(CO)c(=O)n1C2 (stereo not shown) [Example 10, 3-[12-ethyl-8-(hydroxymethyl)-9-oxo-9,11-dihydroindolizino[1,2-b]quinolin-7-yl]-3-hydroxypentanoic acid] | 96.00 | 104.00 | 87.00 | 35.00 | 20.00 | 10.00 | 2.00 | 91.51 | 97.94 | 89.28 | 67.32 | 31.51 | 19.78 | 3.65 | 111.00 | 87.00 | 103.00 | 63.00 | 42.00 | 17.00 | PERCENTAGE OF CELL PROLIFERATION ([3]; 100 000 nM): 9.00%; PERCENTAGE OF CELL PROLIFERATION ([4]; 0.1 nM): 93.00%; PERCENTAGE OF CELL PROLIFERATION ([4]; 1 nM): 92.00%; PERCENTAGE OF CELL PROLIFERATION ([4]; 10 nM): 91.00%; PERCENTAGE OF CELL PROLIFERATION ([4]; 100 nM): 60.00%; PERCENTAGE OF CELL PROLIFERATION ([4]; 1 000 nM): 39.00%; PERCENTAGE OF CELL PROLIFERATION ([4]; 10 000 nM): 15.00%; PERCENTAGE OF CELL PROLIFERATION ([4]; 100 000 nM): 3.00%
